Source: patent US20120277436A1, “PHENYLHYDRAZONE DERIVATIVES AND THEIR USE AS PHARMACEUTICALS” (priority 2009, published 2012)

Assays:
[1] = system: TA100, TA98, TA 102, TA 1537 and TA 1535; assay: AMES test, overall conclusion over all strains; assay type: cell-based, Salmonella typhimuriu; conditions: absence and presence of S-9
Source text: Gene mutation can be evaluated in vitro, using amino-acid requiring strains of Salmonella typhimuriu. Different protocols for this test have been published (Ames B. N. et al Mutation Res. 1975, 31, 347-364, and Gatehouse D. et al Mutation Res. 1994, 312, 217-233). The principle of this bacterial reverse mutation test is that it detects mutations which revert mutations present in the test strains and restore the functional capability of the bacteria to synthesise an essential amino acid. The revertant bacteria are detected by their ability to grow in the absence of the amino acid required by the parent test strain.
In the present example, the guidelines OECD TG 471 (i.e. AMES Test) was used to detect gene mutation at different doses in the TA100, TA98, TA 102, TA 1537 and TA 1535.
Treatments covering a broad range of concentrations, separated by narrow intervals, were performed both in the absence and presence of metabolic activation (S-9) from Aroclor 1254 induced animals. The compound was formulated in anhydrous analytical grade dimethylsulphoxide (DMSO) and the highest concentration used in was determined following a preliminary cytotoxicity Range-Finder Experiment.

[2] = system: ZDF rats; assay: Treatment of prediabetic ZDF rats by oral administration (plasma triglycerides); assay type: in vivo, rat
Description: (§1) Assay of serum triglycerides may be performed enzymatically using a commercially available kit. In summary, the triglycerides are treated with a lipase in order to generate glycerol and fatty acids. In the presence of ATP, the glycerol is transformed by […] into glycerol-3-phosphate. The glycerol-3-phosphate is subsequently transformed into dihydroxyacetone in generating oxygenated water (H202) which may be detected by formation of quinoneimine in the presence of parachlorophenol, amino-4-antipyrin and peroxydase. The intensity of the quinoneimine coloration is subsequently measured at 505 nm. This coloration is proportional to the quantity of triglycerides present in the sample.
Following the same experiments as in example 2.2, ZDF rats were used to evaluate the effect of the compound on the glycaemia and the plasma level of triglycerides using the experimental protocol described in example 2.2.
The compound was dissolved in PEG 300 and orally administrated to a series of 8 rats for 2 weeks.

[3] = system: Male obese Zucker diabetic fatty (ZDF fa/fa) rats; assay: Treatment of prediabetic ZDF rats by IP injection (plasma glucose, serum triglycerides); assay type: in vivo, rat; conditions: IP injection 10 mg/kg once daily for three weeks, PEG 300
Description: Male obese Zucker diabetic fatty (ZDF fa/fa) rats were used to test the in vivo activity of compound 1. This animal model develops hyperglycemia and insulin resistance.
In this example, six-week-old male prediabetic ZDF rats (Charles River) are provided rat chow and water ad libidum. The obese rats are divided into a control and a treated groups (n=6 per subgroup).
The compound 1 is dissolved in PEG 300 and administrated by IP injection at a dose of 10 mg/kg once daily for a period of three weeks.
Glucose plasma level can be measured by the commercially available kit using the glucose oxydase method (Sigma Chemical Co.).
as §1

With `COc1cc(O)c(/C=N/NC(=O)c2ccc3nccn3c2)c(OC)c1` [Compound 1, [1-(2-hydroxy-4,6-dimethoxy-phenyl)-methylidene]-imidazo[1,2-a]pyridine-6-carbohydrazide] the “mutagenic activity in AMES test” value [1] was “does not exhibit mutagenic activity”, the circulating triglycerides ([2]; administered orally, 2 weeks) was “significantly reduce” and the “Reduction of plasma triglycerides” value ([2]; orally administrated for 2 weeks, versus untreated rats) was 37.4%. For the same molecule, the “Triglycerides, plasma level” value ([2]; orally administrated in PEG 300 for 2 weeks, ZDF rats (n = 8)) was 1.02 ± 0.1 mM, the circulating triglycerides [3] was “significantly reduce” and the “plasma level of glucose” value [3] was “significantly reduces”.
